The target of assay [1] is Serine/threonine-protein kinase MRCK gamma (Homo sapiens) (UniProt Q6DT37). The assay can be described thus: Inhibition of DMPK2 (unknown origin) assessed as residual activity at 100 nM by KINOMEscan analysis relative to control.
Assay [2] deals with Dual specificity testis-specific protein kinase 1 (Homo sapiens) (UniProt Q15569). The experiment in a line: Inhibition of TESK1 (unknown origin) assessed as residual activity at 100 nM by KINOMEscan analysis relative to control.
In assay [3] the target is T1, Serine/threonine-protein kinase TAO3 (Homo sapiens) (UniProt Q9H2K8).
T1 sequence (whole entry): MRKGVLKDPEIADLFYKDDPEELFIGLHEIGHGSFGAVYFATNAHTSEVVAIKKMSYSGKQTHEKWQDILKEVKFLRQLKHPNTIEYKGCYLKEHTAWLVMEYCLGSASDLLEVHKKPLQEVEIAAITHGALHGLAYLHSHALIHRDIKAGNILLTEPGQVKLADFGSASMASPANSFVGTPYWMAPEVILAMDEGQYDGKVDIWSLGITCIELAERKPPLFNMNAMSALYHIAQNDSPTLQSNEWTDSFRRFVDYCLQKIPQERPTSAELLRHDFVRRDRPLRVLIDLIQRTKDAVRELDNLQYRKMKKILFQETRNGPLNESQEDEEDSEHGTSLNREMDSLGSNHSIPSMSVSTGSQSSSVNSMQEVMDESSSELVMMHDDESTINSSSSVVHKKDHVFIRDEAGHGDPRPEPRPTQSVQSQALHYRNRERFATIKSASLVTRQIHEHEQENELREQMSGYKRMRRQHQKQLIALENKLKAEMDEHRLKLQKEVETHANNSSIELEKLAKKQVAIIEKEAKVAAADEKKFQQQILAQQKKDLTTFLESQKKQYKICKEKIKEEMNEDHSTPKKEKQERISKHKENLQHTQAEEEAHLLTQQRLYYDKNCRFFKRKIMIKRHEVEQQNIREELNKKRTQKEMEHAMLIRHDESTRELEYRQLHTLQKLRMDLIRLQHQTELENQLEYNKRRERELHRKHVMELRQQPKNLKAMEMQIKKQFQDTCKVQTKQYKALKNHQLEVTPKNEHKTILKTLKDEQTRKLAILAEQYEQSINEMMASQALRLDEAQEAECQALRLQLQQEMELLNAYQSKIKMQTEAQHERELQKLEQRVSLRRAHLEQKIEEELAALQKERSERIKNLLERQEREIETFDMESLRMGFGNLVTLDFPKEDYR
The experiment in a line: Inhibition of TAOK3 (unknown origin) assessed as residual activity at 100 nM by KINOMEscan analysis relative to control.

Assay [4] addresses T2, Serine/threonine-protein kinase ULK1 (Homo sapiens) (UniProt O75385).
T2 sequence (whole entry): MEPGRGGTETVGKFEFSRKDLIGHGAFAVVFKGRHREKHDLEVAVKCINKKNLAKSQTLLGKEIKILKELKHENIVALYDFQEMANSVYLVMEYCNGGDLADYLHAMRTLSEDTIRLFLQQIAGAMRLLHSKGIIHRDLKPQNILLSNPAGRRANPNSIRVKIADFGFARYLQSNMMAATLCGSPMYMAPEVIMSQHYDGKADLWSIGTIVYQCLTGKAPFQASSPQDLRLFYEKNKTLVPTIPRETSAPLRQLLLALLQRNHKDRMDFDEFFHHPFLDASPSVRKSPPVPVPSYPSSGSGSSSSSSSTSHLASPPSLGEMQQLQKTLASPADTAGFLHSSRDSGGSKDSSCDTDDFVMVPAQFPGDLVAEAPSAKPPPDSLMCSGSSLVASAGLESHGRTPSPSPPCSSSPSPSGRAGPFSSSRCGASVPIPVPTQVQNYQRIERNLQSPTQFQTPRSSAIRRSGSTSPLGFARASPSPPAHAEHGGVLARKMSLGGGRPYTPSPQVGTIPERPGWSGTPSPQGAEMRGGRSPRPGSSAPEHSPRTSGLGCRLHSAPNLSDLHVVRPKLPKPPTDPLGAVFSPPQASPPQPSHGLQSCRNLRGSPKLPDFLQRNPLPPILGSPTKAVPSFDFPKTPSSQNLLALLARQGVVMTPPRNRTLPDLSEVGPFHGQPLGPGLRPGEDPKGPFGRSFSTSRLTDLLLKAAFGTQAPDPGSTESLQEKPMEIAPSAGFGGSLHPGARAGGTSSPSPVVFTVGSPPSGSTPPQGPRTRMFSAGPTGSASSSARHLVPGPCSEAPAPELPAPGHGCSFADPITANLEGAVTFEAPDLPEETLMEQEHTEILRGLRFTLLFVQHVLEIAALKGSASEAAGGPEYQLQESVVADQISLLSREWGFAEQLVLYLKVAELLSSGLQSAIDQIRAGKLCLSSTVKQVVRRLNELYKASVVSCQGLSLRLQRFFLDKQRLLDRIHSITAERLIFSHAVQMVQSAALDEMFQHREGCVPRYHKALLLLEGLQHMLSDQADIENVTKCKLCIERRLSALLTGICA
The assay can be described thus: Inhibition of ULK1 (unknown origin) assessed as residual activity at 100 nM by KINOMEscan analysis relative to control.

Dual specificity testis-specific protein kinase 1 (Homo sapiens), sequence (Q15569 whole entry, looked up): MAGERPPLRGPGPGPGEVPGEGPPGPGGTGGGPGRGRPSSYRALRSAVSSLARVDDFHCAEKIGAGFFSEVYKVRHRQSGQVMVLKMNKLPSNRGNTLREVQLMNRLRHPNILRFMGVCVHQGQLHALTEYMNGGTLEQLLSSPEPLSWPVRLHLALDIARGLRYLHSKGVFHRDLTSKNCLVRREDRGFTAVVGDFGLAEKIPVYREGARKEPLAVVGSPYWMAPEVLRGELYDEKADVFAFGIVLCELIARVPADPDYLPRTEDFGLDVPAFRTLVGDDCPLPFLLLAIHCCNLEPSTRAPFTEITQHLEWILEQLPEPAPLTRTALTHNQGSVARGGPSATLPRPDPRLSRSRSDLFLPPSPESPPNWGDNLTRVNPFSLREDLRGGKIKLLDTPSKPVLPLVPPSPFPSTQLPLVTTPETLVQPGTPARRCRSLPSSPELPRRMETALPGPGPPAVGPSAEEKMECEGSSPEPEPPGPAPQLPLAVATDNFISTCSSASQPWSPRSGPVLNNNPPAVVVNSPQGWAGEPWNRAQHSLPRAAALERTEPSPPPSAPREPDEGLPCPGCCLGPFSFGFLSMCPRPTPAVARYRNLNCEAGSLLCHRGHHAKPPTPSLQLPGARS
Serine/threonine-protein kinase MRCK gamma (Homo sapiens), sequence (Q6DT37 whole entry): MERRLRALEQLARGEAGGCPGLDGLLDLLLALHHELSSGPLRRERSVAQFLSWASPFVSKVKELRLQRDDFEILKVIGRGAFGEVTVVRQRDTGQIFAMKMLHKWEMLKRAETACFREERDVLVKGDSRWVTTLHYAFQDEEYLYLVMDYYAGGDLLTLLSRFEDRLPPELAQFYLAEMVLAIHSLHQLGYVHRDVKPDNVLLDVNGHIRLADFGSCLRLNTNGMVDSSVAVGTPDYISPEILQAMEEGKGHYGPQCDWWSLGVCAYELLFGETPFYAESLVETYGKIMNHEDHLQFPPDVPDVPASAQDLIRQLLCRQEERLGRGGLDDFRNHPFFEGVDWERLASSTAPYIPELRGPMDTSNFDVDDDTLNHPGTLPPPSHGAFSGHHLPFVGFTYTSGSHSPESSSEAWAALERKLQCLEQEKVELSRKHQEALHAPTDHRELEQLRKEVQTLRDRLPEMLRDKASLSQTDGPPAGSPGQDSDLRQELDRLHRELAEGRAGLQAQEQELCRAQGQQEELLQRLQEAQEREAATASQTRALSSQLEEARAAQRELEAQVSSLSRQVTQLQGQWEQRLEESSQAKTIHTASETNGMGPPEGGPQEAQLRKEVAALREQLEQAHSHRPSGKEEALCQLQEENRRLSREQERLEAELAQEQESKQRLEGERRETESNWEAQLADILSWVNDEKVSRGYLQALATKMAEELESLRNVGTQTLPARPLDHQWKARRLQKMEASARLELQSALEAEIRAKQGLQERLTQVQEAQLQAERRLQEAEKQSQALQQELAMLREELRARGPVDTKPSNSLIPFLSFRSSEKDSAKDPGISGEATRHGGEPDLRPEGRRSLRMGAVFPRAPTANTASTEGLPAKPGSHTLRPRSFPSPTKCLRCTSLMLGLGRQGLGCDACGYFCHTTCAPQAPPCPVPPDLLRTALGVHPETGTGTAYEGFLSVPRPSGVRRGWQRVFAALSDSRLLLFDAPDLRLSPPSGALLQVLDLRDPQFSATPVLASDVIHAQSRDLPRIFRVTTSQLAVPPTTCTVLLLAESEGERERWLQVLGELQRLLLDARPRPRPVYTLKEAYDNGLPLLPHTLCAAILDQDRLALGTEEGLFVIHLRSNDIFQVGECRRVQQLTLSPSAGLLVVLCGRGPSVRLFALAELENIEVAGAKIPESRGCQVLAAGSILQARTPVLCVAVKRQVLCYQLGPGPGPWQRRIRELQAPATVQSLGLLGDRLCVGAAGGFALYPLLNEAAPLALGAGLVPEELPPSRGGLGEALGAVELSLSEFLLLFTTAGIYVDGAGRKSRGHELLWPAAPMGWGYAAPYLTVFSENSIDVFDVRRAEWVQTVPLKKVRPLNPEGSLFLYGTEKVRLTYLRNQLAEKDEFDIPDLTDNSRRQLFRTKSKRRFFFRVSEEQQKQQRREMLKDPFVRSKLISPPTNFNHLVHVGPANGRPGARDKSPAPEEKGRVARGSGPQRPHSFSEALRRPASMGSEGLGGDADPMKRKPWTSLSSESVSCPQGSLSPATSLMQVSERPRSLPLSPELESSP

With `COc1cc2ncnc(N[C@H](C)c3cccc4ccccc34)c2cc1OC`, the Activity in assay [1] turned out to be 33%; in assay [2] it was 73%; in assay [3] it was 82%; in assay [4], 96%.

The values above are taken from ChEMBL document CHEMBL5678818, “Discovery of potent SOS1 inhibitors that block RAS activation via disruption of the RAS-SOS1 interaction” (Proc Natl Acad Sci U S A, 2019).
